Assay results from US12643910B2, “Substituted pyrazolo[3,4-b]pyridines as ectonucleotide pyrophosphatase/phosphodiesterase 1 (ENPP1) modulators” (SANFORD BURNHAM PREBYS MEDICAL DISCOVERY INSTITUTE, priority 2019, dated 2026).

What was measured:
human ENPP1 = target: T1, human ENPP1 (Homo sapiens, UniProt P22413); experiment: ENPP1 assay with ATP substrate (Transcreener AMP2/GMP2 TR-FRET); assay type: biochemical; conditions: 1 hour at room temperature
T1 construct: made in house
T1 sequence (P22413 1-925): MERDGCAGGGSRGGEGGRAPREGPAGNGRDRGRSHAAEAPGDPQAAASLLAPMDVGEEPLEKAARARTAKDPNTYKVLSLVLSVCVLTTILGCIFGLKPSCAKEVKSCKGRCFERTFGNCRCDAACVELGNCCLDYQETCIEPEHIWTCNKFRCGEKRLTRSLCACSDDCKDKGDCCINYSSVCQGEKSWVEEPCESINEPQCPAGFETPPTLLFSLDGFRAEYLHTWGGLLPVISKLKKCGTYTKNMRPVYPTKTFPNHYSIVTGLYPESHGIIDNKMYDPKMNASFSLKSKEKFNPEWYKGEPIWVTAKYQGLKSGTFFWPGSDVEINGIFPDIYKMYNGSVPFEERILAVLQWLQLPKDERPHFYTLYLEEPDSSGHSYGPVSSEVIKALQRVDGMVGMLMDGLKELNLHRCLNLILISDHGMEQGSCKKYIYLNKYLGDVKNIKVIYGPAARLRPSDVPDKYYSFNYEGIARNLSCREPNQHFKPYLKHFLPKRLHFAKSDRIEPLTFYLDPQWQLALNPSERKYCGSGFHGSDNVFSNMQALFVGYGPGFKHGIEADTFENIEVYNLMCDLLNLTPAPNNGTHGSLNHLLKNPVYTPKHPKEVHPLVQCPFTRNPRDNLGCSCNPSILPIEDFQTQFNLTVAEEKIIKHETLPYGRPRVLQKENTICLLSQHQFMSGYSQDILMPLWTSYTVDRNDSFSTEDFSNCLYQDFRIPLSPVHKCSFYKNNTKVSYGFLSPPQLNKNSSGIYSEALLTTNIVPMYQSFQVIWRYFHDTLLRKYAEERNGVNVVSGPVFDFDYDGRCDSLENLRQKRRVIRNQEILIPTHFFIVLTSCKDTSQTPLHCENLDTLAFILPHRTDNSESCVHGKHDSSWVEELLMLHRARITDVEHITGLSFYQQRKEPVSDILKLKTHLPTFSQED
In short: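 5′-AMP from ATP hydrolysis (300 nM ATP stock added; enzyme added as 8.5 μM stock) detected by competitive TR-FRET. Buffer: 50 mM Tris pH 7.5, 1 mM TCEP, 2 mM MgCl2, 0.005% Tween 20, 1% DMSO. Reaction 1 h at room temperature, EDTA stop. IC50 from 2-parameter variable-slope fit.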

ENPP3 = target: T2, ENPP3 (Homo sapiens, UniProt O14638); experiment: ENPP3 Km ATP assay; assay type: biochemical; conditions: ATP at Km
T2 sequence (O14638 1-875): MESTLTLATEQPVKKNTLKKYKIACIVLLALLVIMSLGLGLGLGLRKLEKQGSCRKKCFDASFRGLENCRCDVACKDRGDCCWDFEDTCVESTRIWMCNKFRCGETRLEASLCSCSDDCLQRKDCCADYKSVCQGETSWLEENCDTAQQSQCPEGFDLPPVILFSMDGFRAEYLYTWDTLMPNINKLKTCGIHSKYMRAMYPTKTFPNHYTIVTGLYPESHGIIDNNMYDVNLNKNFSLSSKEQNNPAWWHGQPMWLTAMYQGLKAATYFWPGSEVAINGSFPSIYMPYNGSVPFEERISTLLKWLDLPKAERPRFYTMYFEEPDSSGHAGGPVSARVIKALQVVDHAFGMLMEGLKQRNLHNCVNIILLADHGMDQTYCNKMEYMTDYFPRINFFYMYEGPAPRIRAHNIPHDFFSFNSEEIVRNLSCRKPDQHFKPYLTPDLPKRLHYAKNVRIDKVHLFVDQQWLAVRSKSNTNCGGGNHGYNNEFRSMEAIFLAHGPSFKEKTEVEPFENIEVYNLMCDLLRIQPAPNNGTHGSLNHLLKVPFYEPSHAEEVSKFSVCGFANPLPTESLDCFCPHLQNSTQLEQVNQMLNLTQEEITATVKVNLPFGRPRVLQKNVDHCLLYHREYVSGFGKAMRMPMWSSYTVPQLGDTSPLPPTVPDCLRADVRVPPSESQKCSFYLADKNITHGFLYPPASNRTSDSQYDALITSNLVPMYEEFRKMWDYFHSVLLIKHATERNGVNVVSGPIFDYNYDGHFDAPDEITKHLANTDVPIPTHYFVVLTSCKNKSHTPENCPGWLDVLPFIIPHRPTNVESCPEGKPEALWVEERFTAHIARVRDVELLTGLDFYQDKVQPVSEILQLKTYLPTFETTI

Compound	IC50 (human ENPP1)	IC50 (ENPP3)
Cn1ncc2c(NCc3ccc(S(N)(=O)=O)cc3Cl)ncnc21 [Example 2.47, 3-Chloro-4-(((1-methyl-1H-pyrazolo[3,4-d]pyrimidin-4-yl)amino)methyl)-benzenesulfonamide]	0.1 to 1 µM	1 to 20 µM
Cn1ncc2c(NCc3ccc(S(N)(=O)=O)cc3)nc(NCc3ccccc3)nc21 [Example 2.48, 4-(((6-(Benzylamino)-1-methyl-1H-pyrazolo[3,4-d]pyrimidin-4-yl)amino)methyl)-benzenesulfonamide]	0.1 to 1 µM	0.1 to 1 µM
CCNc1nc(NCc2ccc(S(N)(=O)=O)cc2)c2cnn(C)c2n1 [Example 2.49, 4-(((6-(Ethylamino)-1-methyl-1H-pyrazolo[3,4-d]pyrimidin-4-yl)amino)methyl)-benzenesulfonamide]	0.1 to 1 µM	0.1 to 1 µM
Cn1ncc2c(NCc3ccc(S(N)(=O)=O)cc3)nc(Nc3ccccc3)nc21 [Example 2.50, 4-(((1-Methyl-6-(phenylamino)-1H-pyrazolo[3,4-d]pyrimidin-4-yl)amino)methyl)-benzenesulfonamide]	< 0.1 µM	0.1 to 1 µM
Cc1nc(N2CCC(NCCCc3ccncc3)CC2)c2cnn(C)c2n1 [Example 2.51, 1-(1,6-Dimethyl-1H-pyrazolo[3,4-d]pyrimidin-4-yl)-N-(3-(pyridin-4-yl)propyl)piperidin-4-amine]	> 20 µM	> 20 µM
Cn1ncc2c(NCc3ccc(S(N)(=O)=O)nc3)ncnc21 [Example 2.52, 5-(((1-Methyl-1H-pyrazolo[3,4-d]pyrimidin-4-yl)amino)methyl)pyridine-2-sulfonamide]	< 0.1 µM	1 to 20 µM
Cn1ncc2c(NCc3ccc(S(N)(=O)=O)cn3)ncnc21 [Example 2.53, 6-(((1-Methyl-1H-pyrazolo[3,4-d]pyrimidin-4-yl)amino)methyl)pyridine-3-sulfonamide]	0.1 to 1 µM	> 20 µM
Cn1ncc2ncnc(NCc3ccc(S(N)(=O)=O)cc3)c21 [Example 2.54, 4-[(1-Methyl-1H-pyrazolo[4,3-d]pyrimidin-7-ylamino)-methyl]-benzenesulfonamide]	< 0.1 µM	1 to 20 µM
Cn1ncc2c(NCc3ccc(S(N)(=O)=O)cc3)cnnc21 [Example 2.55, 4-(((1-Methyl-1H-pyrazolo[3,4-c]pyridazin-4-yl)amino)methyl)benzenesulfonamide]	0.1 to 1 µM	1 to 20 µM
Cn1ncc2c(NCc3ccc(S(N)(=O)=O)cc3)nncc21 [Example 2.56, 4-(((1-Methyl-1H-pyrazolo[3,4-d]pyridazin-4-yl)amino)methyl)benzenesulfonamide]	> 20 µM	> 20 µM
Cc1noc2ncnc(N3CCC(NCCCc4ccc(F)cc4)CC3)c12 [Example 2.57, N-(3-(4-Fluorophenyl)propyl)-1-(3-methylisoxazolo[5,4-d]pyrimidin-4-yl)piperidin-4-amine]	> 20 µM	> 20 µM
Cn1nnc2c(NCc3ccc(S(N)(=O)=O)cc3)ncnc21 [Example 2.58, 4-(((3-Methyl-3H-[1,2,3]triazolo[4,5-d]pyrimidin-7-yl)amino)methyl)benzenesulfonamide]	1 to 20 µM	1 to 20 µM
Cc1noc2ncnc(NCc3ccc(S(N)(=O)=O)cc3)c12 [Example 2.59, 4-(((3-Methylisoxazolo[5,4-d]pyrimidin-4-yl)amino)methyl)benzenesulfonamide]	1 to 20 µM	1 to 20 µM
Cn1ncc2c(NCc3ccc(S(N)(=O)=O)cc3)ccnc21 [Example 2.60, 4-(((1-Methyl-1H-pyrazolo[3,4-b]pyridin-4-yl)amino)methyl)benzenesulfonamide]	< 0.1 µM	0.1 to 1 µM
Cn1ncc2c(NCc3ccc(S(N)(=O)=O)cc3Cl)ccnc21 [Example 2.61, 3-Chloro-4-(((1-methyl-1H-pyrazolo[3,4-b]pyridin-4-yl)amino)methyl)benzenesulfonamide]	0.1 to 1 µM	0.1 to 1 µM
Cn1ncc2c(NCc3ccc(S(N)(=O)=O)c(C(F)(F)F)c3)ccnc21 [Example 2.62, 4-(((1-Methyl-1H-pyrazolo[3,4-b]pyridin-4-yl)amino)methyl)-2-(trifluoromethyl)-benzenesulfonamide]	< 0.1 µM	0.1 to 1 µM
COc1cc(S(N)(=O)=O)ccc1CNc1ccnc2c1cnn2C [Example 2.63, 3-Methoxy-4-(((1-methyl-1H-pyrazolo[3,4-b]pyridin-4-yl)amino)methyl)benzenesulfonamide]	0.1 to 1 µM	1 to 20 µM
Cn1ncc2c(NCc3ccc(S(N)(=O)=O)cc3F)ccnc21 [Example 2.64, 3-Fluoro-4-(((1-methyl-1H-pyrazolo[3,4-b]pyridin-4-yl)amino)methyl)benzenesulfonamide]	< 0.1 µM	0.1 to 1 µM
COc1cc(CNc2ccnc3c2cnn3C)ccc1S(N)(=O)=O [Example 2.65, 2-Methoxy-4-(((1-methyl-1H-pyrazolo[3,4-b]pyridin-4-yl)amino)methyl)-benzenesulfonamide]	1 to 20 µM	> 20 µM
Cn1ncc2c(NCc3ccc(S(N)(=O)=O)cc3)nccc21 [Example 2.66, 4-(((1-Methyl-1H-pyrazolo[4,3-c]pyridin-4-yl)amino)methyl)benzenesulfonamide]	1 to 20 µM	1 to 20 µM
Cn1ncc2c(NCc3ccc(S(N)(=O)=O)c(F)c3)ccnc21 [Example 2.67, 2-Fluoro-4-(((1-methyl-1H-pyrazolo[3,4-b]pyridin-4-yl)amino)methyl)benzenesulfonamide]	< 0.1 µM	0.1 to 1 µM
Cn1ncc2c(NCc3ccc(S(N)(=O)=O)c(Cl)c3)ccnc21 [Example 2.68, 2-Chloro-4-(((1-methyl-1H-pyrazolo[3,4-b]pyridin-4-yl)amino)methyl)-benzenesulfonamide]	0.1 to 1 µM	1 to 20 µM
Cc1cc(S(N)(=O)=O)ccc1CNc1ccnc2c1cnn2C [Example 2.69, 3-Methyl-4-(((1-methyl-1H-pyrazolo[3,4-b]pyridin-4-yl)amino)methyl)-benzenesulfonamide]	0.1 to 1 µM	1 to 20 µM
Cc1cc(CNc2ccnc3c2cnn3C)ccc1S(N)(=O)=O [Example 2.70, 2-Methyl-4-(((1-methyl-1H-pyrazolo[3,4-b]pyridin-4-yl)amino)methyl)-benzenesulfonamide]	0.1 to 1 µM	1 to 20 µM
Cn1ncc2c(NCc3ccc(S(N)(=O)=O)cn3)ccnc21 [Example 2.71, 6-(((1-Methyl-1H-pyrazolo[3,4-b]pyridin-4-yl)amino)methyl)pyridine-3-sulfonamide]	< 0.1 µM	0.1 to 1 µM
Cn1ncc2c(NCc3ccc(S(N)(=O)=O)nc3)ccnc21 [Example 2.72, 5-(((1-Methyl-1H-pyrazolo[3,4-b]pyridin-4-yl)amino)methyl)pyridine-2-sulfonamide]	< 0.1 µM	0.1 to 1 µM
Cn1ncc2c(NCc3ccc(S(N)(=O)=O)cc3)cc(Cl)nc21 [Example 2.73, 4-(((6-Chloro-1-methyl-1H-pyrazolo[3,4-b]pyridin-4-yl)amino)methyl)benzenesulfonamide]	< 0.1 µM	< 0.1 µM
